Drawing on patent US12122778B2, “Activating pyruvate kinase R” (Novo Nordisk Health Care AG, priority 2018, dated 2024), this text covers activation, AC50 and Emax for 13 compounds.

The target in one assay is PKR(wt) (Homo sapiens, UniProt P30613). Description: Luminescence Biochemical Assay (Kinase Glo Plus), wild type PKR. The note with it: without FBP; for activation at 1.54 µM: 1.54 μM compound, read-out: AC50 LUM KGP woFBP % Fold@1.54 μM mean; for AC50: read-out: AC50 LUM KGP woFBP AC50 μM gmean; for Emax: read-out: AC50 LUM KGP woFBP MAX % FOLD mean. As for the experimental part:
(§1) In some embodiments, a PKR Activating Compound can have: (1) an AC50 value of less than 0.1 μM (e.g., compounds with AC50 values of “+++” in Table 13), 0.1-1.0 μM (e.g., compounds with AC50 values of “++” in Table 13), or 1.01-40 μM (e.g., compounds with AC50 values of “+” in Table 13); (2) a MAX % Fold of 75%-250%, 250-500%, or 75%-500%; and/or (3) a % Fold@1.54 μM of 75%-250%, 250-500%, or 75%-500%. In some embodiments, a PKR Activating Compound has (1) an AC50 value of less than 1.0 μM; (2) a MAX % Fold of 75%-500%; and/or (3) a % Fold@1.54 μM of 75%-500%.
(§2) The phosphorylation of Adenosine-5′-diphosphate (ADP) by various mutants of PKR was determined by the Kinase Glo Plus Assay (Promega) in the presence or absence of FBP [D-Fructose-1,6-diphosphate; BOC Sciences, CAS: 81028-91-3] as follows. Unless otherwise indicated, all reagents were purchased from Sigma-Aldrich. All reagents were prepared in buffer containing 50 mM Tris-HCl, 100 mM KCl, 5 mM MgCl2, and 0.01% Triton X100, 0.03% BSA, and 1 mM DTT. Enzyme and PEP [Phospho(enol) pyruvic acid] were added at 2× to all wells of an assay-ready plate containing serial dilutions of test compounds or DMSO vehicle. Final enzyme concentrations for PKR(wt), PKR(R510Q), and PKR(G332S) were 0.8 nM, 0.8 nM, and 10 nM respectively. Final PEP concentration was 100 μM. The Enzyme/PEP mixture was incubated with compounds for 30 minutes at RT before the assay was initiated with the addition of 2×ADP [Adenosine-5′-diphosphate] and KinaseGloPlus. Final concentration of ADP was 100 μM. […] For assays containing FBP, that reagent is added at 30 μM upon reaction initiation. Reactions were allowed to progress for 45 minutes at RT until luminescence was recorded by the BMG PHERAstar FS Multilabel Reader. All compounds were tested in triplicate at concentrations ranging from 42.5 μM to 2.2 nM in 0.83% DMSO.
(§3) Luminescence values were converted to % Fold increase by normalizing to the average of the DMSO control and multiplying by 100. Max, min, slope and AC50 were determined by the standard four parameter fit algorithm of ActivityBase XE Runner. Compounds were evaluated with three parameters—AC50, MAX % Fold, and % Fold@1.54 μM (FIG. 1). The AC50 value for a compound is the concentration (μM) corresponding to the midway between the maximum and minimum values of the four parameter logistic curve fit (i.e., at which the % fold increase along the four parameter logistic curve fit is halfway between MAX % Fold and MIN % Fold (% Fold Midpoint)), MAX % Fold is the highest fold increase observed at any concentration of compound, and % Fold@1.54 μM is the fold increase at a compound concentration of 1.54 μM. The parameter % Fold@1.54 μM was selected to capture elements of both the AC50 and MAX % Fold and to provide a ranking based on both potency and effect. The compound concentration of 1.54 μM was chosen as one that can optimally differentiate the set of compounds based on the range of activities observed.
(§4) As set forth in Table 13 below, AC50 values (columns A, D, G) are defined as follows: ≤0.1 μM (+++); >0.1 μM and ≤1.0 μM (++); >1.0 μM and ≤40 μM (+); >40 μM (0). Max % FOLD values (columns B, E, H) are defined as follows: ≤75% (+); >75% and ≤250% (++); >250% and ≤500% (+++). % Fold@1.54 μM values (columns C, F, J) are defined as follows: ≤75% (+); >75% and ≤250% (++); >250% and ≤50000 (+++).
On the technique in general: Kinase-Glo reads ATP consumption through a luciferase reaction.

Another assay deals with PKR(R510Q) (Homo sapiens, UniProt P30613, R510Q). Description: Luminescence Biochemical Assay (Kinase Glo Plus), PKR R510Q mutant. To be noted: without FBP; for activation at 1.54 µM: 1.54 μM compound, read-out: AC50 LUM KGP woFBP % Fold@1.54 μM mean; for AC50: read-out: AC50 LUM KGP woFBP AC50 μM gmean; for Emax: read-out: AC50 LUM KGP woFBP MAX % FOLD mean. The protocol:
as §1, §2, §3, §4

A word on the AC50: it is the midpoint of the concentration-response curve, whichever way the signal moves.

Chain of PKR(R510Q) (P30613 whole entry R510Q): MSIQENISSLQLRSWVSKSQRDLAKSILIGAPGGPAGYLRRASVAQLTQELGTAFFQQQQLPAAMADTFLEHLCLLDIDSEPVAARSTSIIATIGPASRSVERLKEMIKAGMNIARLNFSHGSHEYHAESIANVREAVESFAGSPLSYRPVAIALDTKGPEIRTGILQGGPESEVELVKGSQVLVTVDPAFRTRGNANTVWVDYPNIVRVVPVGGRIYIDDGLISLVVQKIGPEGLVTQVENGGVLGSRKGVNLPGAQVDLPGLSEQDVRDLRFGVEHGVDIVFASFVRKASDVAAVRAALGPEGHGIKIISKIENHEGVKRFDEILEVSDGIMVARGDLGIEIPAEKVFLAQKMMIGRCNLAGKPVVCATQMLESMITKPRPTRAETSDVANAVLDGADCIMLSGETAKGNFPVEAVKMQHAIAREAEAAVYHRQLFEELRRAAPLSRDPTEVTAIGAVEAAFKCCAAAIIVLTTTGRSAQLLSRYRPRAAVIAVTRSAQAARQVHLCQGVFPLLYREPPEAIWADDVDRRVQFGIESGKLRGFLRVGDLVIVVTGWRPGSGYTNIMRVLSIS
Chain of PKR(wt) (P30613 whole entry): as the sequence (P30613 whole entry R510Q) above, with Q510R counted along it

In the case of `O=C([C@H](O)c1ccccc1)N1CC2=C(C1)CN(S(=O)(=O)c1ccc(Cl)cc1)C2` [Example 18-10, (2R)-1-[5-(4-chlorobenzenesulfonyl)-1H,2H,3H,4H,5H,6H-pyrrolo[3,4-c]pyrrol-2-yl]-2-hydroxy-2-phenylethan-1-one], at PKR(wt), the activation at 1.54 µM fell in the range of 75 to 250%, the AC50 lay within 0.1 to 1 µM and the Emax lay within 75 to 250%. Moreover, at PKR(R510Q), the activation at 1.54 µM was 75 to 250%, the AC50 was in the range of 1 to 40 µM and the Emax is 250 to 500%.
On to `O=C([C@H](O)c1ccccc1)N1CC2=C(C1)CN(S(=O)(=O)c1ccc(C(F)(F)F)cc1)C2` [Example 18-11, (2R)-2-hydroxy-2-phenyl-1-{5-[4-(trifluoromethyl)benzene-sulfonyl]-1H,2H,3H,4H,5H,6H-pyrrolo[3,4-c]pyrrol-2-yl}ethan-1-one], for which, on PKR(wt), the activation at 1.54 µM was 75 to 250%, the AC50 was 0.1 to 1 µM and the Emax lay within 75 to 250%. On PKR(R510Q), the activation at 1.54 µM lay in the range of 75 to 250%, the AC50 lay within 1 to 40 µM and the Emax is 250 to 500%.
For `O=C([C@H](O)c1ccccc1)N1CC2=C(C1)CN(S(=O)(=O)c1ccc(C(F)(F)F)nc1)C2` [Example 18-14, (2R)-2-hydroxy-2-phenyl-1-(5-{[6-(trifluoromethyl)pyridin-3-yl]sulfonyl}-1H,2H,3H,4H,5H,6H-pyrrolo[3,4-c]pyrrol-2-yl)ethan-1-one], at PKR(wt), the activation at 1.54 µM lay in the range of 75 to 250%, the half-maximal activity concentration (AC50) was 1 to 40 µM and the Emax was in the range of 75 to 250%. Also, on PKR(R510Q), the activation at 1.54 µM lay within 75 to 250%, the half-maximal activity concentration (AC50) was in the range of 1 to 40 µM and the Emax was 75 to 250%.
On to `Cc1ccc(F)c(S(=O)(=O)N2CC3=C(CN(C(=O)[C@H](O)c4ccccc4)C3)C2)c1` [Example 18-16, (2R)-1-[5-(2-fluoro-5-methylbenzenesulfonyl)-1H,2H,3H,4H,5H,6H-pyrrolo[3,4-c]pyrrol-2-yl]-2-hydroxy-2-phenylethan-1-one], for which, at PKR(wt), the activation at 1.54 µM was in the range of 75 to 250%, the AC50 is not above 0.1 µM and the Emax was in the range of 75 to 250%. On PKR(R510Q), the activation at 1.54 µM is 250 to 50000%, the AC50 is not above 0.1 µM and the Emax lay in the range of 250 to 500%.
On to `COc1ccc(S(=O)(=O)N2CC3=C(CN(C(=O)[C@H](O)c4ccccc4)C3)C2)cc1F` [Example 18-17, (2R)-1-[5-(3-fluoro-4-methoxybenzenesulfonyl)-1H,2H,3H,4H,5H,6H-pyrrolo[3,4-c]pyrrol-2-yl]-2-hydroxy-2-phenylethan-1-one], for which, at PKR(wt), the activation at 1.54 µM was 75 to 250%, the AC50 is not above 0.1 µM and the Emax lay within 75 to 250%. Further, on PKR(R510Q), the activation at 1.54 µM lay within 250 to 50000%, the AC50 is not above 0.1 µM and the Emax lay in the range of 250 to 500%.
Take `O=C([C@H](O)c1ccccc1)N1CC2=C(C1)CN(S(=O)(=O)c1ccc(F)cc1F)C2` [Example 18-18, (2R)-1-[5-(2,4-difluorobenzenesulfonyl)-1H,2H,3H,4H,5H,6H-pyrrolo[3,4-c]pyrrol-2-yl]-2-hydroxy-2-phenylethan-1-one]: at PKR(wt), the activation at 1.54 µM fell in the range of 75 to 250%, the AC50 is not above 0.1 µM and the Emax lay in the range of 75 to 250%. Further, on PKR(R510Q), the activation at 1.54 µM was in the range of 250 to 50000%, the half-maximal activity concentration (AC50) is 0.1 to 1 µM and the Emax fell in the range of 250 to 500%.
In the case of `O=C(C1OCCc2ccccc21)N1CC2=C(C1)CN(S(=O)(=O)c1ccc(OC(F)F)cc1)C2` (stereo not drawn) [Example 18-33, 2-[4-(Difluoromethoxy)benzenesulfonyl]-5-(3,4-dihydro-1H-2-benzopyran-1-carbonyl)-1H,2H,3H,4H,5H,6H-pyrrolo[3,4-c]pyrrole], on PKR(wt), the activation at 1.54 µM lay within 75 to 250%, the concentration at half-maximal activity (AC50) is 1 to 40 µM and the Emax was in the range of 250 to 500%. In addition, at PKR(R510Q), the activation at 1.54 µM fell in the range of 75 to 250%, the AC50 lay in the range of 1 to 40 µM and the Emax fell in the range of 250 to 500%.
With `N#Cc1ccc(S(=O)(=O)N2CC3=C(CN(C(=O)[C@H](O)c4ccccc4)C3)C2)cc1` [Example 18-45, 4-({5-[(2R)-2-hydroxy-2-phenylacetyl]-1H,2H,3H,4H,5H,6H-pyrrolo[3,4-c]pyrrol-2-yl}sulfonyl)benzonitrile], at PKR(wt), the activation at 1.54 µM was in the range of 75 to 250%, the AC50 is 0.1 to 1 µM and the Emax fell in the range of 75 to 250%. At PKR(R510Q), the activation at 1.54 µM was in the range of 75 to 250%, the AC50 fell in the range of 0.1 to 1 µM and the Emax lay in the range of 250 to 500%.
Consider `O=C([C@H](O)c1ccccc1)N1CC2=C(C1)CN(S(=O)(=O)c1cccc(C(F)(F)F)c1)C2` [Example 18-49, (2R)-2-hydroxy-2-phenyl-1-{5-[3-(trifluoromethyl)benzenesulfonyl]-1H,2H,3H,4H,5H,6H-pyrrolo[3,4-c]pyrrol-2-yl}ethan-1-one], for which, at PKR(wt), the activation at 1.54 µM fell in the range of 75 to 250%, the AC50 lay in the range of 0.1 to 1 µM and the Emax fell in the range of 75 to 250%. Moreover, on PKR(R510Q), the activation at 1.54 µM is 75 to 250%, the AC50 lay within 0.1 to 1 µM and the Emax was 75 to 250%.
Turning to `O=C([C@H](O)c1ccccc1)N1CC2=C(C1)CN(S(=O)(=O)c1cccc(F)c1)C2` [Example 18-50, (2R)-1-[5-(3-fluorobenzenesulfonyl)-1H,2H,3H,4H,5H,6H-pyrrolo[3,4-c]pyrrol-2-yl]-2-hydroxy-2-phenylethan-1-one], on PKR(wt), the activation at 1.54 µM was in the range of 75 to 250%, the AC50 fell in the range of 0.1 to 1 µM and the Emax fell in the range of 75 to 250%. On PKR(R510Q), the activation at 1.54 µM fell in the range of 75 to 250%, the AC50 lay within 0.1 to 1 µM and the Emax lay in the range of 250 to 500%.
Turning to `O=C([C@H](O)c1ccccc1)N1CC2=C(C1)CN(S(=O)(=O)c1ccc(Cl)s1)C2` [Example 18-55, (2R)-1-{5-[(5-chlorothiophen-2-yl)sulfonyl]-1H,2H,3H,4H,5H,6H-pyrrolo[3,4-c]pyrrol-2-yl}-2-hydroxy-2-phenylethan-1-one], at PKR(wt), the activation at 1.54 µM fell in the range of 75 to 250%, the AC50 was 0.1 to 1 µM and the Emax fell in the range of 75 to 250%. Further, on PKR(R510Q), the activation at 1.54 µM was in the range of 75 to 250%, the AC50 was in the range of 0.1 to 1 µM and the Emax is 250 to 500%.
On to `Cc1cc(CNC(=O)N2CC3=C(C2)CN(S(=O)(=O)c2ccc(OC(F)F)cc2)C3)no1` [Example 21-5, 5-[4-(Difluoromethoxy)benzenesulfonyl]-N-[(5-methyl-1,2-oxazol-3-yl)methyl]-1H,2H,3H,4H,5H,6H-pyrrolo[3,4-c]pyrrole-2-carboxamide], for which, at PKR(wt), the activation at 1.54 µM lay within 250 to 50000%, the AC50 is 0.1 to 1 µM and the Emax was 250 to 500%. In addition, on PKR(R510Q), the activation at 1.54 µM is 250 to 50000%, the half-maximal activity concentration (AC50) was 0.1 to 1 µM and the Emax is 250 to 500%.
Consider `Cc1cc(CNC(=O)N2CC3=C(C2)CN(S(=O)(=O)c2ccc(OC(F)F)cc2)C3)on1` [Example 21-6, 5-[4-(Difluoromethoxy)benzenesulfonyl]-N-[(3-methyl-1,2-oxazol-5-yl)methyl]-1H,2H,3H,4H,5H,6H-pyrrolo[3,4-c]pyrrole-2-carboxamide], for which, on PKR(wt), the activation at 1.54 µM is 250 to 50000%, the half-maximal activity concentration (AC50) fell in the range of 0.1 to 1 µM and the Emax fell in the range of 250 to 500%. In addition, on PKR(R510Q), the activation at 1.54 µM lay within 250 to 50000%, the AC50 fell in the range of 0.1 to 1 µM and the Emax was in the range of 250 to 500%.
